# Data published in EP0107907A2, “Improvements in or relating to immunomodulating agents” (ELI LILLY AND COMPANY, priority 1982, dated 1984).
# Marks after values point to notes of the source that are not given here.
# Assays:
# [1] = test system: Listeria monocytogenes EGD; assay: Protection of mice by pretreatment against lethal Listeria monocytogenes infection; type: in vivo, CD1 mice; conditions: for Average Survival Time: survivors at 14 days given 15 day survival time;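 as to Percent Survivors: survivors counted daily for 14 days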
# Experimental: In the test CD1 mice weighing 18-20 g were pretreated parenterally with the test compound 5, 3, and 1 days before intravenous infection in the lateral tail vein with 0.1 ml containing 5 x 10^5 viable cells of Listeria monocytogenes EGD. Test compound was solubilized in pyrogen-free water and administered intraperitoneally in 0.25 ml of the solution. Ten mice each were used for each concentration tested. Ten control mice were treated intraperitoneally at 5, 3, and 1-days preinfection with 0.25 ml of pyrogen-free water. The mice were caged, watered, and fed daily. […] All surviving animals at 14 days were given an arbitrary 15 day survival time. The average survival time was calculated for each group. Significant differences between the treated and control groups of mice were determined by the standard "T" test.
# murine macrophages = assay: In vitro activation of murine macrophages (macrophage-mediated tumor cytotoxicity against P815 cells); type: cell-based; conditions: 48 hours
# Experimental: In one procedure, the ability of the compounds to activate murine macrophages in vitro was determined. Peritoneal macrophages were exposed to a compound of formula 1, 2, or 3 simultaneously with the addition of target cells. Tumor cytotoxicity of these treated macrophages was determined 48 hours later by trypan blue enumeration. The percentage of growth inhibition of P815 cells due to composition-mediated macrophage activation was calculated by comparison to that of P815 cells grown in the.presence of macrophages exposed to buffer.
structure (smiles),measurement,setting,value
"C=C(CP(=O)(O)O)NC(=O)[C@H](CC(C)C)NC(=O)CN [Compound 1, N^2-glycyl-N-(1-methylene-2-phosphonoethyl)leucinamide]",Percent Survivors,"[1]; pretreatment 6.25 mg/kg i.p., day 1 post infection",100%
same,Percent Survivors,"[1]; pretreatment 6.25 mg/kg i.p., day 2 post infection",100%
same,Percent Survivors,"[1]; pretreatment 6.25 mg/kg i.p., day 3 post infection",100%
same,Percent Survivors,"[1]; pretreatment 6.25 mg/kg i.p., day 4 post infection",60%
same,Percent Survivors,"[1]; pretreatment 6.25 mg/kg i.p., day 5 post infection",50%
same,Percent Survivors,"[1]; pretreatment 6.25 mg/kg i.p., day 6 post infection",40%
same,Percent Survivors,"[1]; pretreatment 6.25 mg/kg i.p., day 7 post infection",30%
same,Percent Survivors,"[1]; pretreatment 6.25 mg/kg i.p., day 8 post infection",30%
same,Percent Survivors,"[1]; pretreatment 6.25 mg/kg i.p., day 9 post infection",30%
same,Percent Survivors,"[1]; pretreatment 6.25 mg/kg i.p., day 10 post infection",30%
same,Percent Survivors,"[1]; pretreatment 6.25 mg/kg i.p., day 11 post infection",30%
same,Percent Survivors,"[1]; pretreatment 6.25 mg/kg i.p., day 12 post infection",30%
same,Percent Survivors,"[1]; pretreatment 6.25 mg/kg i.p., day 13 post infection",30%
same,Percent Survivors,"[1]; pretreatment 6.25 mg/kg i.p., day 14 post infection",30%
same,Average Survival Time,[1]; pretreatment 6.25 mg/kg i.p.,7.9* Days
same,Percent Survivors,"[1]; pretreatment 12.5 mg/kg i.p., day 1 post infection",100%
same,Percent Survivors,"[1]; pretreatment 12.5 mg/kg i.p., day 2 post infection",100%
same,Percent Survivors,"[1]; pretreatment 12.5 mg/kg i.p., day 3 post infection",100%
same,Percent Survivors,"[1]; pretreatment 12.5 mg/kg i.p., day 4 post infection",80%
same,Percent Survivors,"[1]; pretreatment 12.5 mg/kg i.p., day 5 post infection",80%
same,Percent Survivors,"[1]; pretreatment 12.5 mg/kg i.p., day 6 post infection",70%
same,Percent Survivors,"[1]; pretreatment 12.5 mg/kg i.p., day 7 post infection",70%
same,Percent Survivors,"[1]; pretreatment 12.5 mg/kg i.p., day 8 post infection",70%
same,Percent Survivors,"[1]; pretreatment 12.5 mg/kg i.p., day 9 post infection",70%
same,Percent Survivors,"[1]; pretreatment 12.5 mg/kg i.p., day 10 post infection",70%
same,Percent Survivors,"[1]; pretreatment 12.5 mg/kg i.p., day 11 post infection",70%
same,Percent Survivors,"[1]; pretreatment 12.5 mg/kg i.p., day 12 post infection",70%
same,Percent Survivors,"[1]; pretreatment 12.5 mg/kg i.p., day 13 post infection",70%
same,Percent Survivors,"[1]; pretreatment 12.5 mg/kg i.p., day 14 post infection",70%
same,Percent Survivors,"[1]; pretreatment 12.5 mg/kg i.p., day 15 post infection",70%
same,Average Survival Time,[1]; pretreatment 12.5 mg/kg i.p.,11.9* Days
same,Percent Survivors,"[1]; pretreatment 25 mg/kg i.p., day 1 post infection",100%
same,Percent Survivors,"[1]; pretreatment 25 mg/kg i.p., day 2 post infection",100%
same,Percent Survivors,"[1]; pretreatment 25 mg/kg i.p., day 3 post infection",90%
same,Percent Survivors,"[1]; pretreatment 25 mg/kg i.p., day 4 post infection",70%
same,Percent Survivors,"[1]; pretreatment 25 mg/kg i.p., day 5 post infection",40%
same,Percent Survivors,"[1]; pretreatment 25 mg/kg i.p., day 6 post infection",40%
same,Percent Survivors,"[1]; pretreatment 25 mg/kg i.p., day 7 post infection",40%
same,Percent Survivors,"[1]; pretreatment 25 mg/kg i.p., day 8 post infection",40%
same,Percent Survivors,"[1]; pretreatment 25 mg/kg i.p., day 9 post infection",40%
same,Percent Survivors,"[1]; pretreatment 25 mg/kg i.p., day 10 post infection",40%
same,Percent Survivors,"[1]; pretreatment 25 mg/kg i.p., day 11 post infection",40%
same,Percent Survivors,"[1]; pretreatment 25 mg/kg i.p., day 12 post infection",40%
same,Percent Survivors,"[1]; pretreatment 25 mg/kg i.p., day 13 post infection",40%
same,Percent Survivors,"[1]; pretreatment 25 mg/kg i.p., day 14 post infection",40%
same,Percent Survivors,"[1]; pretreatment 25 mg/kg i.p., day 15 post infection",40%
same,Average Survival Time,[1]; pretreatment 25 mg/kg i.p.,8.6* Days
same,Percent Survivors,"[1]; pretreatment 50 mg/kg i.p., day 1 post infection",100%
same,Percent Survivors,"[1]; pretreatment 50 mg/kg i.p., day 2 post infection",100%
same,Percent Survivors,"[1]; pretreatment 50 mg/kg i.p., day 3 post infection",80%
same,Percent Survivors,"[1]; pretreatment 50 mg/kg i.p., day 4 post infection",70%
same,Percent Survivors,"[1]; pretreatment 50 mg/kg i.p., day 5 post infection",40%
same,Percent Survivors,"[1]; pretreatment 50 mg/kg i.p., day 6 post infection",30%
same,Percent Survivors,"[1]; pretreatment 50 mg/kg i.p., day 7 post infection",30%
same,Percent Survivors,"[1]; pretreatment 50 mg/kg i.p., day 8 post infection",30%
same,Percent Survivors,"[1]; pretreatment 50 mg/kg i.p., day 9 post infection",30%
same,Percent Survivors,"[1]; pretreatment 50 mg/kg i.p., day 10 post infection",30%
same,Percent Survivors,"[1]; pretreatment 50 mg/kg i.p., day 11 post infection",30%
same,Percent Survivors,"[1]; pretreatment 50 mg/kg i.p., day 12 post infection",30%
same,Percent Survivors,"[1]; pretreatment 50 mg/kg i.p., day 13 post infection",30%
same,Percent Survivors,"[1]; pretreatment 50 mg/kg i.p., day 14 post infection",30%
same,Percent Survivors,"[1]; pretreatment 50 mg/kg i.p., day 15 post infection",30%
same,Average Survival Time,[1]; pretreatment 50 mg/kg i.p.,7.6* Days
same,Percent Survivors,"[1]; pretreatment 100 mg/kg i.p., day 1 post infection",100%
same,Percent Survivors,"[1]; pretreatment 100 mg/kg i.p., day 2 post infection",100%
same,Percent Survivors,"[1]; pretreatment 100 mg/kg i.p., day 3 post infection",80%
same,Percent Survivors,"[1]; pretreatment 100 mg/kg i.p., day 4 post infection",50%
same,Percent Survivors,"[1]; pretreatment 100 mg/kg i.p., day 5 post infection",50%
same,Percent Survivors,"[1]; pretreatment 100 mg/kg i.p., day 6 post infection",50%
same,Percent Survivors,"[1]; pretreatment 100 mg/kg i.p., day 7 post infection",50%
same,Percent Survivors,"[1]; pretreatment 100 mg/kg i.p., day 8 post infection",50%
same,Percent Survivors,"[1]; pretreatment 100 mg/kg i.p., day 9 post infection",50%
same,Percent Survivors,"[1]; pretreatment 100 mg/kg i.p., day 10 post infection",50%
same,Percent Survivors,"[1]; pretreatment 100 mg/kg i.p., day 11 post infection",50%
same,Percent Survivors,"[1]; pretreatment 100 mg/kg i.p., day 12 post infection",50%
same,Percent Survivors,"[1]; pretreatment 100 mg/kg i.p., day 13 post infection",50%
same,Percent Survivors,"[1]; pretreatment 100 mg/kg i.p., day 14 post infection",50%
same,Percent Survivors,"[1]; pretreatment 100 mg/kg i.p., day 15 post infection",50%
same,Average Survival Time,[1]; pretreatment 100 mg/kg i.p.,9.3* Days
same,protecting mice against a lethal Listeria monocytogenes EGD infection,"[1]; pretreatment 5, 3, and 1 days before intravenous infection, intraperitoneally",highly effective
same,Percent Macrophage Cytotoxicity,"murine macrophages; 1.56 µg/ml, Experiment 2",0%
same,Percent Macrophage Cytotoxicity,"murine macrophages; 3.12 µg/ml, Experiment 1",11%
same,Percent Macrophage Cytotoxicity,"murine macrophages; 3.12 µg/ml, Experiment 2",14%
same,Percent Macrophage Cytotoxicity,"murine macrophages; 6.25 µg/ml, Experiment 1",0%
same,Percent Macrophage Cytotoxicity,"murine macrophages; 6.25 µg/ml, Experiment 2",0%
same,Percent Macrophage Cytotoxicity,"murine macrophages; 12.5 µg/ml, Experiment 1",27%
same,Percent Macrophage Cytotoxicity,"murine macrophages; 12.5 µg/ml, Experiment 2",39%
same,Percent Macrophage Cytotoxicity,"murine macrophages; 25 µg/ml, Experiment 1",43%
same,Percent Macrophage Cytotoxicity,"murine macrophages; 25 µg/ml, Experiment 2",32%
same,Percent Macrophage Cytotoxicity,"murine macrophages; 50 µg/ml, Experiment 1",35%
same,Percent Macrophage Cytotoxicity,"murine macrophages; 50 µg/ml, Experiment 2",29%
same,Percent Macrophage Cytotoxicity,"murine macrophages; 100 µg/ml, Experiment 1",53%
